Results reported in PubChem BioAssay AID489027 (Sanford-Burnham Center for Chemical Genomics, 2010).
The source made the active and inactive calls. The rule behind the calls is not given here.

Molecular target: UPR counterscreen luciferase reporter, luminescence
Assay: luciferase reporter activation, UPR counterscreen line – cell-based, luminescence, counter-screen for adaptive UPR activator project, dose response (AID 489027)

| Structure (SMILES) | EC50 |
| --- | --- |
| O=C(NCc1ccccc1Cl)c1cccc2c1C(=O)c1ccc(-c3ccc(OC(F)(F)F)cc3)cc1S2(=O)=O | 9.15 µM |
| COc1cc(OC)cc(C(=O)Nc2ccc3nc4n(c(=O)c3c2)CCCCC4)c1 | > 80 µM (inactive) |
| Cc1ccc(-c2nnn(CC(=O)N(Cc3cccs3)C(C(=O)NC3CCCCC3)c3ccco3)n2)o1 (stereo not drawn) | > 80 µM (inactive) |
| N#Cc1ccccc1/C=N/Nc1nc(-c2ccccc2)c2cc(Cl)ccc2n1 | 15.7 µM |
| COc1ccc(C(CCNCc2ccc(F)cc2)c2ccc(F)cc2)cc1 (stereo not drawn) | 13.6 µM |
| CCOC(=O)/C=c1\s/c(=C\c2ccc3cc(OC)ccc3c2)c(=O)n1CC(=O)NCC1CCCO1 (stereo not drawn) | > 80 µM (inactive) |
| COc1cc(OC)c2c(-c3cccc(-c4ccc(CO)cc4)c3)cc(=O)oc2c1 | > 80 µM (inactive) |
| COc1ccc2cc3c(N)nn(C(=O)C4CCC(C(C)(C)C)CC4)c3nc2c1 (stereo not drawn) | > 80 µM (inactive) |
| Cc1ccc2c(c1)C(=O)C(=O)N2Cc1ccc(C(F)(F)F)cc1 | inactive |
| CCCc1nc2ccccc2c(=O)n1/N=C/c1ccc(O)c(O)c1 | 15 µM |
| O=Cc1cc2ccccc2nc1SCc1ccc(Cl)cc1 | inactive |
| O=C1NC(=O)N(Cc2ccc(F)cc2)C(=O)/C1=C/c1cccs1 | 13.8 µM |
| CN(C)CCCN(C(=O)c1ccc(S(=O)(=O)N2CCCCCC2)cc1)c1nc2ccc(Br)cc2s1 | 12.7 µM |
| Cc1cccc2c1Sc1ccc(Cl)cc1CC2N1CCNCC1 (stereo not drawn) | > 80 µM (inactive) |
| NC(=O)CC(NC(=O)Cc1cccc2ccccc12)c1ccc(NCCOc2ccccc2)c([N+](=O)[O-])c1 (stereo not drawn) | > 80 µM (inactive) |
| Cn1c(Cl)cnc1C1CC(=O)c2cc(Cl)ccc2O1 (stereo not drawn) | 12 µM |
| O=C(c1ccc2c(c1)[nH]c(=S)n1c3ccccc3nc21)N1CCN(c2cccc(Cl)c2)CC1 | 16.4 µM |
| Cc1ccc(N=Cc2c(O)n(-c3ccc4c(c3)OCO4)c(=O)c3ccccc23)cc1 | > 80 µM (inactive) |
| CCOc1ccc(C(=O)Nc2ccc(NC(=O)c3ccco3)c(Cl)c2)cc1Cl | 8.74 µM |
| CCCCOc1ccccc1NC(=O)Cn1c(-c2nonc2N)nc2ccccc21 | inactive |
| Cc1nc(SCC(=O)Nc2ccc(F)cc2)c(C#N)c(C)c1CC(=O)c1ccc(Br)cc1 | > 80 µM (inactive) |
| Cc1ccc(Nc2nc(-c3c(C)nc4ccccn34)cs2)cc1 | > 80 µM (inactive) |
| FC(F)(F)c1nnc2c(Sc3ccccc3)nc3ccc(Cl)cc3n12 | 4.29 µM |
| CCOC(=O)C1=C(O)/C(=C/c2cn(CC(=O)NCC3CCCO3)c3ccccc23)SC1=Nc1ccc(C)cc1 (stereo not drawn) | > 80 µM (inactive) |

| Structure (SMILES) | EC50 |
| --- | --- |
| NS(=O)(=O)c1ccc(N/N=C/c2cn(-c3ccccc3)nc2-c2ccccc2)c([N+](=O)[O-])c1 | 7.34 µM |
| Cc1ccc(Cl)cc1N1CCN(Cc2nc3c(c(=O)[nH]c(=O)n3C)n2CCc2ccccc2)CC1 | 16.7 µM |
| Cc1cc(C)c2c(n1)sc1c(-c3ccccc3)c(C#N)c(N)nc12 | > 80 µM (inactive) |
| CCOC(=O)C1=C(C)N=C2SC(C(=O)OC)=CC(=O)N2C1c1ccc(F)cc1 (stereo not drawn) | > 80 µM (inactive) |
| Cc1cc(NC(=O)CSc2nc3cc(Cl)ccc3c(=O)n2Cc2ccco2)no1 | > 80 µM (inactive) |
| Brc1ccc(C2=Nn3c(nnc3-c3n[nH]c4c3CCC4)SC2)cc1 | inactive |
| Cc1cc(C)c(NC(=O)CSc2nc(COc3ccccc3)nc3ccccc23)c(C)c1 | inactive |
| Oc1ccc(/C=N/Nc2ncnc3c2ncn3Cc2ccccc2)cc1O | 7.62 µM |
| COc1ccc2nc(/C(C#N)=C\c3ccc(Oc4ccc([N+](=O)[O-])cn4)cc3)[nH]c2c1 | > 80 µM (inactive) |
| O=C(COc1ccc(Cl)cc1Cl)NN=C1c2ccccc2-c2ccccc21 | inactive |
| Cn1nc(C(F)(F)F)c(/C=N/OC(=O)c2ccccc2)c1SCc1ccc(Cl)cc1 | inactive |
| Clc1ccc2c(c1)C(N1CCNCC1)Cc1ccccc1S2 (stereo not drawn) | > 80 µM (inactive) |
| O=C(Nc1nc(-c2ccc3ccccc3c2)cs1)c1ccc(N2C(=O)CCC2=O)cc1 | > 80 µM (inactive) |
| Cc1cc(NC(=O)/C(C#N)=C/c2ccc(-c3ccc(SC(F)F)cc3)o2)n(-c2ccccc2)n1 | > 80 µM (inactive) |
| O=C(/C=C1\NC2(CCCC2)Cc2ccccc21)C(=O)N/N=C/c1ccc(O)c(O)c1 | 10.4 µM |
| CC(C)=CCc1c2c(c3occ(-c4ccc(O)cc4)c(=O)c3c1O)C=CC(C)(C)O2 | 16.6 µM |
| COc1ccc2[nH]c3nc(SCc4nnc(-c5ccc(C)cc5)o4)nnc3c2c1 | 19.7 µM |
| NS(=O)(=O)c1ccc(N=Cc2c(O)n(C3CCCCC3)c(=O)n(C3CCCCC3)c2=O)cc1 | 14.6 µM |
| O=C(C[n+]1ccc(-c2cc(C(=O)Nc3cccc(C(F)(F)F)c3)c3ccccc3n2)cc1)c1cccc([N+](=O)[O-])c1 | 16.8 µM |
| Cc1ccc(Cn2c(C(C)Nc3nc(-c4ccc(F)cc4)cs3)nc3cc(Cl)c(Cl)cc32)cc1 (stereo not drawn) | inactive |
| CCOC(=O)c1c(NC(=O)c2cc3n(n2)C(C(F)(F)F)CC(c2cccs2)N3)sc(C)c1C (stereo not drawn) | 8.7 µM |
| COc1ccc(NC(=O)CSc2nc3ccc(Nc4nc(N5CCOCC5)nc(N5CCOCC5)n4)cc3s2)cc1 | > 80 µM (inactive) |
| CCOC(=O)c1c(-c2ccc(C)o2)csc1NC(=O)COC(=O)c1ccc(NC(N)=O)cc1 | > 80 µM (inactive) |
| C[C@H]1[C@H](C)CC[C@]2(C(=O)O)CC[C@]3(C)C(=CC[C@@H]4[C@@]5(C)C[C@@H](O)[C@H](O)C(C)(C)[C@@H]5CC[C@]43C)[C@H]12 | > 80 µM (inactive) |

| Structure (SMILES) | EC50 |
| --- | --- |
| CCOc1ccc(Cn2c3ccc(OC)cc3c3nc4ccccc4nc32)cc1OC | inactive |
| Cc1ccc(-c2[nH]ncc2/C=N/n2c(COc3ccccc3)nc3ccccc3c2=O)cc1 | inactive |
| O=C(/C(=N/N=C/c1ccc(O)c(O)c1)c1ccccc1)c1ccccc1 | 8.07 µM |
| O=[N+]([O-])c1cccc(/C=C/c2ccc3cccc(O)c3n2)c1 | > 80 µM (inactive) |
| COc1ccc(C(=O)O/N=C/c2c(C(F)(F)F)nn(C)c2SCc2ccccc2Cl)cc1 | inactive |
| OC(CNCC1CCCO1)Cn1c2ccc(Br)cc2c2cc(Br)ccc21 (stereo not drawn) | > 80 µM (inactive) |
| Cn1nnnc1Sc1ncnc2scc(-c3ccc(Br)cc3)c12 | 17.1 µM |
| CCc1nc(C)cn1S(=O)(=O)c1cc([N+](=O)[O-])ccc1Cl | > 80 µM (inactive) |
| COc1ccc2cc(C)c3nnc(SCC(=O)Nc4nc(-c5ccc(F)cc5)cs4)n3c2c1 | 13 µM |
| COc1ccc(C(CCNCc2ccccc2)c2ccc(F)cc2)cc1 (stereo not drawn) | 10.4 µM |
| COc1cccc(C(=O)Oc2cc3c4c(c2)C(C)=CC(C)(C)N4C(=O)C3=O)c1 | 15.7 µM |
| O=C(C[C@H]1C/C=C\C[C@@H](NC(=O)OCC2c3ccccc3-c3ccccc32)C(=O)O[C@@H](c2ccccc2)CNC1=O)N[C@H](CO)Cc1ccccc1 | 18.1 µM |
| N/C(=N\c1nc(CSc2ccccn2)cc(=O)[nH]1)Nc1ccc(Cl)cc1Cl | > 80 µM (inactive) |
| Nc1nc(-c2cc(O)ccc2[N+](=O)[O-])cc(-c2ccccc2)c1[N+](=O)[O-] | 7.88 µM |
| CCC1(c2ccc(F)cc2)NC(=O)N(CC(=O)Nc2ccc(-c3nc4ccc(C)cc4s3)cc2)C1=O (stereo not drawn) | > 80 µM (inactive) |
| CCCCCCCCCCOC(=O)Cn1c(COc2ccc(OC)cc2)[n+](C)c2ccccc21 | 18.8 µM |
| Cc1ccc(O)c(NC(=S)NC(=O)Cc2ccc(Cl)cc2)c1 | inactive |
| CCc1ccc2[nH]c3nc(SCC(=O)NNC(=O)c4ccc(C(C)(C)C)cc4)nnc3c2c1 | inactive |
| Cn1ncc(N=Cc2c(O)ccc3ccccc23)c1C(=O)Nc1cccc(Cl)c1 | > 80 µM (inactive) |
| CC1C/C(=N/Nc2nc3ccccc3[nH]2)CC(C)(C)C1 (stereo not drawn) | 14.6 µM |
| Cc1ccc2c(c1)c(N=NC(N)=S)c(O)n2Cc1ccccc1 | > 80 µM (inactive) |
| O=C(CSc1nc2ccc(Nc3nc(N4CCOCC4)nc(N4CCOCC4)n3)cc2s1)Nc1ccccc1F | > 80 µM (inactive) |
| CCCCCCCCCCOC(=O)Cn1c(COc2ccccc2C)[n+](C)c2ccccc21 | > 80 µM (inactive) |
| O=C(Nc1ccc(NC(=O)c2sc3ccccc3c2Cl)cc1Cl)c1ccco1 | inactive |

| Structure (SMILES) | EC50 |
| --- | --- |
| O=S(=O)(c1ccc2nc(-c3ccccc3)[nH]c2c1)N1CCN(c2ccc(Cl)cc2)CC1 | > 80 µM (inactive) |
| O=C(NCCCn1ccnc1)c1nn2c(C(F)(F)F)cc(-c3ccc(Br)cc3)nc2c1Cl | > 80 µM (inactive) |
| CCc1cccc(CC)c1NC(=O)/C(C#N)=C/c1ccccc1C(F)(F)F | > 80 µM (inactive) |
| O=C1Nc2ccccc2/C1=C/c1ccc([N+](=O)[O-])cc1 | inactive |
| COc1ccc(OC)c(-c2nnc3n2N=C(c2ccc(OC)c(OCC4CC4)c2)CS3)c1 | > 80 µM (inactive) |
| COc1ccc(OCc2n(CC(=O)OC3CC(C)CCC3C(C)C)c3ccccc3[n+]2C)cc1 (stereo not drawn) | > 80 µM (inactive) |
| CC1=C(/C=C/C(C)=C/C=C/C(C)=C/C(=O)Nc2ccc(O)cc2)C(C)(C)CCC1 | 8.45 µM |
| O=Cc1cc2ccccc2nc1SCc1ccc(Cl)c(Cl)c1 | inactive |
| CC(C)(C)C(=O)NC(=S)NNC(=O)C(c1ccccc1)c1ccccc1 | 2.14 µM |
| Cc1cccnc1Nc1nc(-c2ccc(O)c(O)c2)cs1 | 2.29 µM |
| Cc1c(NC(=O)CSc2ccc(Cl)cc2)cccc1-c1nc2cc(Cl)ccc2o1 | > 80 µM (inactive) |
| Cc1nc2ccccc2n1-c1nc(-c2ccco2)cc(C(F)(F)F)n1 | 11.1 µM |
| CC1=CC(C)[C@H](/C=N/n2c(=O)[nH]c3c([nH]c4ccc(Br)cc43)c2=O)C(C)C1 (stereo partly drawn) | inactive |
| CCOc1ccc(NC(=S)NC(=O)/C=C/c2ccc(OC)c(OC)c2)c([N+](=O)[O-])c1 | > 80 µM (inactive) |
| COC(=O)c1c(NC(=O)c2nc3ccccc3s2)sc2c1CC(C)(C)NC2(C)C | > 80 µM (inactive) |
| CC(=O)Nc1ccccc1Sc1ccc2c3c(cccc13)C(=O)N(c1ccc(C)cc1)C2=O | > 80 µM (inactive) |
| c1cc(SC2CCCCC2)cc(-c2nc3cnccn3c2NC2CCCCC2)c1 | 12.6 µM |
| COc1ccc2[nH]c3c(c2c1)CCN1C(=O)C(CC(=O)NC/C=C(\C)CCC=C(C)C)C[C@H](C(=O)N2CCOCC2)[C@@]31CCC1CCCC1 (stereo partly drawn) | 18.5 µM |
| CN(C)S(=O)(=O)c1ccc(N2CCCC2)c(C(=O)Nc2nc3ccccc3s2)c1 | 12.7 µM |
| N#C/C(=C\c1ccc(N2CCCC2)c([N+](=O)[O-])c1)c1nc2ccccc2[nH]1 | > 80 µM (inactive) |
| Cc1ccc(F)cc1N=Cc1c(O)c2ccccc2oc1=O | 9.06 µM |
